Laboratory results taken from ChEMBL document CHEMBL1139188, “Identification of diamino chromone-2-carboxamides as MCHr1 antagonists with minimal hERG channel activity” (Bioorg Med Chem Lett, 2007).

Tests used:
[1] = target: Voltage-gated inwardly rectifying potassium channel KCNH2 (Homo sapiens, UniProt Q12809)
Description: Displacement of [3H]dofetilide from hERG expressed in HEK293 cell membrane

hERG (KCNH2) = hERG (KCNH2) (Homo sapiens, UniProt Q12809); experiment: Inhibition of hERG-mediated tail current expressed in HEK293 cells at 30 uM by patch clamp method; format: toxicity, cell-based; details: HEK293 cells that express hERG
[2] = AUC (0 to infinity) in DIO mouse plasma at 10 mg/kg, po; format: ADME, organism-based; parameters: time infinity, dose 10 mg/kg, route oral
[3] = Cmax in DIO mouse plasma at 10 mg/kg, po; format: ADME, organism-based; parameters: dose 10 mg/kg, route oral
[4] = Drug level in DIO mouse plasma at 10 mg/kg, po after 12 hrs; format: ADME, organism-based; parameters: dose 10 mg/kg, route oral
[5] = Half life in DIO mouse plasma at 10 mg/kg, po; format: ADME, organism-based; parameters: dose 10 mg/kg, route oral
Mus musculus = experiment: AUC (0 to infinity) in DIO mouse brain at 10 mg/kg, po; format: ADME, organism-based; parameters: time infinity, dose 10 mg/kg, route oral; details: in vivo
[6] = Cmax in DIO mouse brain at 10 mg/kg, po; format: ADME, organism-based; parameters: dose 10 mg/kg, route oral
[7] = Drug level in DIO mouse brain at 10 mg/kg, po after 12 hrs; format: ADME, organism-based; parameters: dose 10 mg/kg, route oral; details: read-out: Drug uptake
[8] = Half life in DIO mouse brain at 10 mg/kg, po; format: ADME, organism-based; parameters: dose 10 mg/kg, route oral

Voltage-gated inwardly rectifying potassium channel KCNH2, sequence (Q12809 whole entry): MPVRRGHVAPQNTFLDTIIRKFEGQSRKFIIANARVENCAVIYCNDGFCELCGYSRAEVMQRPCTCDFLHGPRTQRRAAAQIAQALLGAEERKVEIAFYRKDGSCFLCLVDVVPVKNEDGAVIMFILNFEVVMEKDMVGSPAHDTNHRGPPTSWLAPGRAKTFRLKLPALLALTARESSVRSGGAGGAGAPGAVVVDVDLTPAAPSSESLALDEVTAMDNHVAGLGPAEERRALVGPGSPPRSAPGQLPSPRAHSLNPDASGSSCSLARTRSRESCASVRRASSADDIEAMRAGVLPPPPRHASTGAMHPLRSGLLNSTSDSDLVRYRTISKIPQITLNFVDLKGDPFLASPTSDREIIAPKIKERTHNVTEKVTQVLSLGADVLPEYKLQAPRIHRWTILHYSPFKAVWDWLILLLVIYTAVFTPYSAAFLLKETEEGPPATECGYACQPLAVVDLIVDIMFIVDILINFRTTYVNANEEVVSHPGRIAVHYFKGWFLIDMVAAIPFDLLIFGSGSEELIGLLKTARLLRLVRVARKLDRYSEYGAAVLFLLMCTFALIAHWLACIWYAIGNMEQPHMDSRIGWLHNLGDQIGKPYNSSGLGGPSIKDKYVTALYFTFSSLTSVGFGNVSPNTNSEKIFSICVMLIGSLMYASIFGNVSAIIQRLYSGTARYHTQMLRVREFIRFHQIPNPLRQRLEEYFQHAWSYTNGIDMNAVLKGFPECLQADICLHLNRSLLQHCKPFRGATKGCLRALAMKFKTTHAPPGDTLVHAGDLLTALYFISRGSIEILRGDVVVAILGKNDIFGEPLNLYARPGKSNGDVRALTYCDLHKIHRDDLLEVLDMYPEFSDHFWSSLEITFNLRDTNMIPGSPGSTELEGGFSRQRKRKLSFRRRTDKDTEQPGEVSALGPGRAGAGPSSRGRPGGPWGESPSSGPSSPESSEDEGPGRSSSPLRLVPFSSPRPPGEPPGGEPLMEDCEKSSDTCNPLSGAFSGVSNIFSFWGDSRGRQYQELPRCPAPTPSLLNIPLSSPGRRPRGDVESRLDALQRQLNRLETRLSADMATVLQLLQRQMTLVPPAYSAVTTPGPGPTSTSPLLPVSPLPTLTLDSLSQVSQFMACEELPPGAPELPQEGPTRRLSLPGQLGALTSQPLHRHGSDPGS
hERG (KCNH2), sequence (Q12809 whole entry): as above

Q: Which IC50 [1] does the source give for `O=C(NC1CCN(Cc2ccc(OCCCN3C(=O)CSC3=O)c(F)c2)CC1)c1cc(=O)c2ccc(F)cc2o1` here?
A: The IC50 was 8.5 µM.

Q: Which IC50 [1] does the source give for `COc1cc(C(=O)NCCN2CCCC2)ccc1CN1CCC(NC(=O)c2cc(=O)c3ccc(F)cc3o2)CC1` here?
A: Its IC50 is 6.6 µM.

Q: For `O=C(CCN1CCCCC1)Nc1ccc(CN2CCC(NC(=O)c3cc(=O)c4ccc(F)cc4o3)CC2)cc1F`, which IC50 [1] is on record?
A: The IC50 was 9.18 µM.

Q: Which IC50 [1] does the source give for `COC(C)(C)CCOc1ccc(CN2CCC(NC(=O)c3cc(=O)c4ccc(F)cc4o3)CC2)cc1` here?
A: The IC50 was 4.3 µM.

Q: What does the source list for `O=C(NC1CCN(Cc2ccc(C(=O)NCCN3CCCC3)c(F)c2)CC1)c1cc(=O)c2ccc(F)cc2o1`?
A: inhibition at 30 µM (hERG (KCNH2)): 21%; AUC(0-inf) [2]: 3150 ng·h/mL; Cmax [3]: 598 ng/mL; concentration at 12 h [4]: 38 ng/mL; half-life [5]: 2 h; AUC (Mus musculus): 1378 ng·h/g; Cmax [6]: 185 ng/g; concentration at 12 h [7]: 75 ng/g; half-life [8]: 8 h; IC50 [1]: > 100 µM

Q: With `O=C(NCCN1CCCC1)c1ccc(CN2CCC(NC(=O)c3cc(=O)c4ccc(F)cc4o3)CC2)c(Cl)c1` as the molecule, how does the IC50 [1] read?
A: Its IC50 is 11 µM.
